Data as given in patent US20040242485A1, “Compositions and methods for the amelioration of leptin resistance” (priority 2003, published 2004).

Experiments:
Type in all cases: in vivo, mouse
[1] = amelioration of leptin resistance (food intake and body weight after leptin) by β3 adrenergic receptor agonist in IR S-2 knockout mice; details: repeated intraperitoneal administration for 2 weeks, then leptin 20 mg/kg intraperitoneally, 12 hours after leptin, FIG. 4
Protocol: Moreover, as a control, for the case without intraperitoneal administration of leptin, in which 10 ml/kg of body weight of Tragacanth gum was repeatedly administered orally for 2 weeks, or in which 10 ml/kg of body weight of physiological saline solution was repeatedly intraperitoneally administered for 2 weeks instead of CL-316243, the changes in the amount of food intake, and the changes in body weight (%) were measured.

[2] = changes in body weight after intraperitoneal administration of leptin, wild-type mice; details: 8-week wild-type mice; leptin 10 mg/kg of body weight intraperitoneally; 12 hours after administration; FIG. 1
Protocol: For the case where 10 mg/kg of body weight of leptin was intraperitoneally administered into the 8-week wild-type mouse, followed by food intake, the changes in body weight (%) after 12 hours of administration of leptin were measured. Moreover, (i) for the case where 10 mg/kg of body weight or 50 mg/kg of body weight of leptin was intraperitoneally administered into the 8-week IR S-2 knockout mouse, followed by food intake, the changes in body weight (%) after 12 hours of administration of leptin were measured. Furthermore, as a control, for the case where physiological saline was administered instead of leptin to the 8-week wild-type and IR S-2 knockout mice, the changes in body weight (%) were measured. In FIG. 1, (a) is a result for the case in which the physiological saline was administered; (b) is a result for the case in which […] of body weight of leptin was intraperitoneally administered; and (c) is a result for the case in which […] of body weight of leptin was intraperitoneally administered. In FIG. 1, as well as in other figures, the values are expressed as means±S.E. (n=5−9); **, p<0.01; ***, p<0.001; and “N.S.” not significant. The statistical significances of the differences in body weight, etc. were determined by Student's t test (two-tailed).

[3] = changes in body weight after intraperitoneal administration of leptin, IR S-2 knockout mice; details: 8-week IR S-2 knockout mice, 12 hours after administration, FIG. 1
From the text: Insulin receptor substrate-2 (IR S-2) knockout mice were produced according to Kubota N. et al., Diabetes, November 2000, 49(11), 1880-9. Then, the IR S-2 gene (shown in the upper portion of FIG. 5) was screened from the mouse genome DNA library, and a targeting vector indicated in the middle of FIG. 5 was produced. The targeting vector was introduced into the TT2 ES cell, and ES cell clone with a recombinant was selected (shown in the lower portion of FIG. 5), which was introduced into the 8-celled embryo, thereby obtaining a chimera organism. […]
For the case where 10 mg/kg of body weight of leptin was intraperitoneally administered into the 8-week wild-type mouse, followed by food intake, the changes in body weight (%) after 12 hours of administration of leptin were measured. Moreover, (i) for the case where 10 mg/kg of body weight or 50 mg/kg of body weight of leptin was intraperitoneally administered into the 8-week IR S-2 knockout mouse, followed by food intake, the changes in body weight (%) after 12 hours of administration of leptin were measured. Furthermore, as a control, for the case where physiological saline was administered instead of leptin to the 8-week wild-type and IR S-2 knockout mice, the changes in body weight (%) were measured. […] The statistical significances of the differences in body weight, etc. were determined by Student's t test (two-tailed).

[4] = changes in body weight after continuous ventricular administration of leptin, IR S-2 knockout mice; details: continuous ventricular leptin 10 ng/hr, after one week, FIG. 2
From the text: Insulin receptor substrate-2 (IR S-2) knockout mice were produced according to Kubota N. et al., Diabetes, November 2000, 49(11), 1880-9. Then, the IR S-2 gene (shown in the upper portion of FIG. 5) was screened from the mouse genome DNA library, and a targeting vector indicated in the middle of FIG. 5 was produced. The targeting vector was introduced into the TT2 ES cell, and ES cell clone with a recombinant was selected (shown in the lower portion of FIG. 5), which was introduced into the 8-celled embryo, thereby obtaining a chimera organism. A male chimeric organism was bred with a C57BL/6J female, thereby obtaining hetero-IR S-2 knockout mice, in which a recombinant gene has been introduced into the germ line. These hetero-knockout mice were bred with each other, thereby obtaining homo-IR S-2 knockout mice.
(§1) In a case where a canula was implanted ventricuarly to a 14-week wild-type mouse, and after starting the continuous ventricular administration of leptin (10 ng/hr), followed by food intake at will, the changes in body weigh (%) were measured after one week of said leptin administration.

[5] = changes in body weight after continuous ventricular administration of leptin, wild-type mice; details: 14-week wild-type mice; continuous ventricular leptin 10 ng/hr; after one week; FIG. 2
Protocol: as §1

Compound	leptin resistance (changes in food intake (%) and body weight (%) after leptin) [1]	changes in body weight (%) [2]	changes in body weight (%) ([3]; leptin 10 mg/kg of body weight intraperitoneally)	changes in body weight (%) ([3]; leptin 50 mg/kg of body weight intraperitoneally)	changes in body weight (%) [4]	changes in body weight (%) [5]
CC(Cc1ccc2c(c1)OC(C(=O)[O-])(C(=O)[O-])O2)NCC(O)c1cccc(Cl)c1.[Na+].[Na+] (stereo not drawn) [CL-316243]	leptin resistance in IR S-2 knockout mice is ameliorated					
leptin: hormone secreted from adipose tissues, regulates appetite and energy metabolism		significant reduction in weight was observed	significant reduction in weight was not observed	significant reduction in weight was not observed	significant reduction in weight was not observed	significant reduction in weight was observed
